What was measured:
Assay in all cases: relative viability (nuclei count vs DMSO), 5 days (fraction); higher = more cells survive
[1] = compound: C[C@@H](N)c1ccc(C(=O)Nc2ccnc3[nH]ccc23)cc1 + CC1(C)CCC(c2ccc(Cl)cc2)=C(CN2CCN(c3ccc(C(=O)NS(=O)(=O)c4ccc(N[C@H](CCN5CCOCC5)CSc5ccccc5)c(S(=O)(=O)C(F)(F)F)c4)cc3)CC2)C1 [Navitoclax] (partner 0.5 µM)
Procedure, shortened: (§1)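 Cells from lung cancer lines were seeded into 1536-well plates and, one day later, dosed by pin tool. Treatments were either a single drug or a fixed dose of an anchor drug with five library-drug doses (not always all listed) in √10 steps. After 5 days, nuclei were stained in a one-step fixation (final 0.05% Triton X-100, 1% formaldehyde, 1 ug/ml Hoechst) and counted on 4× images, and relative viability is the treated-to-vehicle nuclei ratio, as the median of duplicate plates.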

[2] = compound: C1CNCCC1C2=CC(=NN2)C3=CC=NC=C3 + CC1(C)CCC(c2ccc(Cl)cc2)=C(CN2CCN(c3ccc(C(=O)NS(=O)(=O)c4ccc(N[C@H](CCN5CCOCC5)CSc5ccccc5)c(S(=O)(=O)C(F)(F)F)c4)cc3)CC2)C1 [Navitoclax] (partner 0.5 µM)
Procedure, shortened: as §1

[3] = compound: C[C@@H](N)c1ccc(C(=O)Nc2ccnc3[nH]ccc23)cc1 + CC(=O)c1c(C)c2cnc(Nc3ccc(N4CCNCC4)cn3)nc2n(C2CCCC2)c1=O [Palbociclib] (partner 0.5 µM)
Procedure, shortened: as §1

Tanzisertib + Pemetrexed = compound: O[C@H]1CC[C@H](Nc2ncc3nc(Nc4c(F)cc(F)cc4F)n([C@H]4CCOC4)c3n2)CC1 [Tanzisertib] + Nc1nc2[nH]cc(CCc3ccc(C(=O)N[C@@H](CCC(=O)O)C(=O)O)cc3)c2c(=O)[nH]1 [Pemetrexed] (partner 0.2 µM)
Procedure, shortened: as §1

Row | Cell Line | relative viability ([1]; first compound 0.04 µM) | relative viability ([1]; first compound 0.1265 µM) | relative viability ([1]; first compound 0.4 µM) | relative viability ([1]; first compound 1.265 µM) | relative viability ([1]; first compound 4 µM) | relative viability ([2]; first compound 0.08 µM) | relative viability ([2]; first compound 0.8 µM) | relative viability ([2]; first compound 2.53 µM) | relative viability ([2]; first compound 8 µM) | relative viability ([3]; first compound 0.04 µM) | relative viability ([3]; first compound 0.1265 µM) | relative viability ([3]; first compound 0.4 µM) | relative viability ([3]; first compound 1.265 µM) | relative viability ([3]; first compound 4 µM) | relative viability (Tanzisertib + Pemetrexed; first compound 0.08 µM) | relative viability (Tanzisertib + Pemetrexed; first compound 0.253 µM) | relative viability (Tanzisertib + Pemetrexed; first compound 0.8 µM) | relative viability (Tanzisertib + Pemetrexed; first compound 2.53 µM) | relative viability (Tanzisertib + Pemetrexed; first compound 8 µM)
1 | COR-L23 | 1.03 | 1.16 | 0.886 | 0.766 | 0.481 | 0.905 | 1.3 | 1.1 | 1.03 | 0.231 | 0.357 | 0.305 | 0.235 | 0.215 | 0.2 | 0.209 | 0.188 | 0.201 | 0.191
2 | NCI-H1993 | 0.904 | 1.01 |  | 0.901 | 0.947 | 0.9 | 0.866 | 1.01 | 0.908 | 0.688 | 0.74 |  | 0.595 | 0.607 | 0.621 | 0.585 | 0.605 | 0.561 | 0.54
3 | NCI-H2405 |  | 0.799 | 0.513 | 0.41 | 0.279 | 1.03 | 0.823 | 1.5 | 0.849 |  | 0.505 | 0.494 | 0.3 | 0.233 | 1.1 | 1.1 | 1 | 1.24 | 0.955
4 | NCI-H2126 | 0.885 | 0.824 | 0.908 | 0.885 | 0.816 | 0.858 | 0.832 | 0.821 | 0.828 | 0.34 | 0.351 | 0.364 | 0.378 | 0.389 | 0.674 | 0.69 | 0.728 | 0.723 | 0.515
5 | NCI-H1944 | 1.05 | 1.01 | 1.06 |  | 0.876 | 0.989 | 0.937 | 1.09 | 1 | 0.37 | 0.334 | 0.351 | 0.387 | 0.266 | 0.733 | 0.589 | 0.686 | 0.678 | 0.554
6 | NCI-H1734 | 0.943 | 0.82 | 0.81 |  | 0.443 | 0.703 | 1.01 | 0.88 | 0.852 | 0.316 | 0.355 | 0.325 | 0.338 | 0.277 | 0.428 | 0.423 | 0.408 | 0.403 | 0.402
7 | A-427 | 1.02 | 0.992 | 0.993 |  | 0.855 | 0.954 | 0.913 | 1.02 | 0.93 | 0.472 | 0.553 | 0.388 | 0.432 | 0.421 | 0.958 | 0.99 | 0.998 | 1.04 | 0.916
8 | RERF-LC-KJ | 0.962 | 0.99 | 1.42 | 1.1 | 0.95 | 1.05 | 1.01 | 0.76 | 0.94 | 1.05 | 1.12 | 1.22 | 1.23 | 0.943 | 0.429 | 0.468 | 0.486 | 0.423 | 0.442
9 | LCLC-97TM1 | 0.405 | 0.507 | 0.44 | 0.786 | 0.836 | 0.432 | 0.385 | 0.396 | 0.68 | 0.276 | 0.217 | 0.341 | 0.257 | 0.309 | 0.172 | 0.164 | 0.146 | 0.169 | 0.173
10 | BEN | 0.0518 | 0.0703 | 0.0684 | 0.0653 | 0.122 | 0.0512 | 0.0642 | 0.0601 | 0.0843 | 0.483 | 0.425 | 0.438 | 0.587 | 0.449 | 0.755 | 0.923 | 1 | 0.909 | 0.605
11 | NCI-H2023 | 1.09 | 1.02 | 1.08 | 1.07 | 0.799 | 0.909 | 1.05 | 1.06 | 0.979 | 0.371 | 0.409 | 0.424 |  | 0.35 | 0.287 | 0.222 | 0.215 | 0.202 | 0.205
12 | LC-2-ad | 0.398 | 0.566 | 0.585 | 0.346 | 0.262 | 0.721 | 0.5 | 0.503 | 0.35 | 0.472 | 0.53 | 0.458 | 0.413 | 0.411 | 0.282 | 0.292 | 0.275 | 0.272 | 0.294
13 | NCI-H647 | 0.978 | 1.19 | 0.942 |  | 0.762 | 1.18 | 1.33 | 1.37 | 1.12 | 0.472 | 0.496 | 0.417 | 0.308 | 0.333 | 0.204 | 0.185 | 0.18 | 0.151 | 0.156
14 | NCI-H1755 | 1.04 | 0.985 | 0.962 | 0.933 | 0.622 | 0.978 | 0.942 | 1.04 | 0.935 | 0.432 | 0.436 | 0.437 | 0.407 | 0.367 | 0.368 | 0.451 | 0.565 | 0.408 | 0.404
15 | EPLC-272H | 1.14 | 1.26 | 1.26 |  | 0.975 | 1.12 | 1.22 | 1.19 | 1.17 | 0.39 | 0.356 | 0.384 |  | 0.427 | 0.296 | 0.306 | 0.388 | 0.475 | 0.289
16 | NCI-H1437 | 1.11 | 1.06 | 1.15 | 1.1 | 0.993 | 1.06 | 1.11 | 1.1 | 1.12 | 0.335 | 0.315 | 0.386 | 0.369 | 0.482 | 0.321 | 0.327 | 0.322 | 0.315 | 0.263
17 | EKVX | 0.914 | 1.15 | 1.32 | 1.07 | 0.807 | 1.03 | 0.713 | 1.07 | 0.96 | 0.413 | 0.415 | 0.432 | 0.38 | 0.28 | 0.467 | 0.341 | 0.41 | 0.34 | 0.337
